Test results published in patent EP1808181A1, “Polysaccharide-cyclodextrin conjugates” (B. BRAUN MELSUNGEN AG, priority 2006, dated 2007).
Converted amounts (≈) assume the structure as drawn.

Legend:
Humane Erythrozyten = experiment: Haemolysis of washed human erythrocytes by cyclodextrin derivatives; format: cell-based, menschlicher; conditions: washed human erythrocytes (0,25%), 10 mM isotonic phosphate buffer pH 7,4, 37°C/30 min; read graphically against complete lysis in water; read-out: Cyclodextrin-Konzentration (frei bzw.gebunden) zur halb-maximalen Hämolyse
Description: (§1) Die Hämolyserate der in Tabelle III aufgeführten Cyclodextrin-Derivate wurde wie folgt bestimmt. Humane Erythrozyten wurden aus Citratblut durch Zentrifugation gewonnen (1000 x g / 10 Minuten), in 10 mM isotonem Phosphatpuffer (pH 7,4) aufgenommen und dreimal gewaschen und in diesem Puffer auf einen Hämatokrit von 5% eingestellt. Aliquote der gewaschenen Erythrozyten (0,1 ml) wurden zu 4 ml der in der Tabelle 3 aufgelisteten Cyclodextrin-Derivate (jeweils 5 unterschiedliche Konzentrationen) zugegeben, gemischt und 30 Minuten bei 37°C und gelegentlichem leichten Schütteln inkubiert. Nach abermaliger Zentrifugation (1000 x g / 10 Minuten) wurde das freigesetzten Hämoglobin im Überstand spektralphotometrisch bei 543 nm bestimmt. Die Hämolyseraten wurde aus den erhaltenen Absoptionswerten im Vergleich mit einer kompletter […] in Wasser ermittelt und die Cyclodextrin- Konzentrationen mit halbmaximaler Hämolyse graphisch ermittelt.
(§2) Tabelle III : Hämolyse gewaschener menschlicher Erythrozyten (0,25%) in 10 mM isotonem Phosphatpuffer (pH 7,4) bei 37°C/30 Minuten durch Cyclodextrin-Derivate

[1] = as above; format: cell-based, menschlicher; conditions: washed human erythrocytes (0,25%), 10 mM isotonic phosphate buffer pH 7,4, 37°C/30 min; read graphically against complete lysis in water; read-out: Cyclodextrin-Konzentration (frei bzw.gebunden) zur halb-maximalen Hämolyse
Description: as §1, §2

physchem = conditions: water

| Compound | HC50 (Humane Erythrozyten) [mM] | other results |
| --- | --- | --- |
| 2-HP-β-Cyclodextrin | 10 | – |
| γ--Cyclodextrin | 30 | – |
| OC[C@H]1O[C@@H]2O[C@H]3[C@H](O)[C@@H](O)[C@@H](O[C@H]4[C@H](O)[C@@H](O)[C@@H](O[C@H]5[C@H](O)[C@@H](O)[C@@H](O[C@H]6[C@H](O)[C@@H](O)[C@@H](O[C@H]7[C@H](O)[C@@H](O)[C@@H](O[C@H]8[C@H](O)[C@@H](O)[C@@H](O[C@H]1[C@H](O)[C@H]2O)O[C@@H]8CO)O[C@@H]7CO)O[C@@H]6CO)O[C@@H]5CO)O[C@@H]4CO)O[C@@H]3CO [β-Cyclodextrin] | – | HC50 at 0.5 h [1]: 5 mM |
| α-Cyclodextrin | 11 | – |
| CC(=O)[C@H]1CC[C@H]2[C@@H]3CCC4=CC(=O)CC[C@]4(C)[C@H]3CC[C@]12C [Progesteron] | – | solubility thermodynamic at 72 h (physchem): 15 µg/mL (≈ 47.7 µM) |
